Experiments:
MRCKβ = biological target: T1, MRCKβ (Homo sapiens, UniProt Q9Y5S2); assay: IMAP fluorescence polarization in vitro kinase assay, MRCKβ; assay type: biochemical; details: for Inhibition at 3 µM (%) / Inhibition at 30 µM (%): MRCKβ in vitro kinase assay, ATP at enzyme Km (0.7 µM); for Inhibition at 3 µM (%): 3 µM inhibitor; for Inhibition at 30 µM (%): 30 µM inhibitor; for inhibition at 3 µM: read-out: Inhibition at 3 µM (%); for inhibition at 30 µM: read-out: Inhibition at 30 µM (%); for IC50: 10 point dose-response, 0.002–40 µM, 0.7 µM ATP
T1 construct: purchased Millipore
T1 sequence (Q9Y5S2 whole entry): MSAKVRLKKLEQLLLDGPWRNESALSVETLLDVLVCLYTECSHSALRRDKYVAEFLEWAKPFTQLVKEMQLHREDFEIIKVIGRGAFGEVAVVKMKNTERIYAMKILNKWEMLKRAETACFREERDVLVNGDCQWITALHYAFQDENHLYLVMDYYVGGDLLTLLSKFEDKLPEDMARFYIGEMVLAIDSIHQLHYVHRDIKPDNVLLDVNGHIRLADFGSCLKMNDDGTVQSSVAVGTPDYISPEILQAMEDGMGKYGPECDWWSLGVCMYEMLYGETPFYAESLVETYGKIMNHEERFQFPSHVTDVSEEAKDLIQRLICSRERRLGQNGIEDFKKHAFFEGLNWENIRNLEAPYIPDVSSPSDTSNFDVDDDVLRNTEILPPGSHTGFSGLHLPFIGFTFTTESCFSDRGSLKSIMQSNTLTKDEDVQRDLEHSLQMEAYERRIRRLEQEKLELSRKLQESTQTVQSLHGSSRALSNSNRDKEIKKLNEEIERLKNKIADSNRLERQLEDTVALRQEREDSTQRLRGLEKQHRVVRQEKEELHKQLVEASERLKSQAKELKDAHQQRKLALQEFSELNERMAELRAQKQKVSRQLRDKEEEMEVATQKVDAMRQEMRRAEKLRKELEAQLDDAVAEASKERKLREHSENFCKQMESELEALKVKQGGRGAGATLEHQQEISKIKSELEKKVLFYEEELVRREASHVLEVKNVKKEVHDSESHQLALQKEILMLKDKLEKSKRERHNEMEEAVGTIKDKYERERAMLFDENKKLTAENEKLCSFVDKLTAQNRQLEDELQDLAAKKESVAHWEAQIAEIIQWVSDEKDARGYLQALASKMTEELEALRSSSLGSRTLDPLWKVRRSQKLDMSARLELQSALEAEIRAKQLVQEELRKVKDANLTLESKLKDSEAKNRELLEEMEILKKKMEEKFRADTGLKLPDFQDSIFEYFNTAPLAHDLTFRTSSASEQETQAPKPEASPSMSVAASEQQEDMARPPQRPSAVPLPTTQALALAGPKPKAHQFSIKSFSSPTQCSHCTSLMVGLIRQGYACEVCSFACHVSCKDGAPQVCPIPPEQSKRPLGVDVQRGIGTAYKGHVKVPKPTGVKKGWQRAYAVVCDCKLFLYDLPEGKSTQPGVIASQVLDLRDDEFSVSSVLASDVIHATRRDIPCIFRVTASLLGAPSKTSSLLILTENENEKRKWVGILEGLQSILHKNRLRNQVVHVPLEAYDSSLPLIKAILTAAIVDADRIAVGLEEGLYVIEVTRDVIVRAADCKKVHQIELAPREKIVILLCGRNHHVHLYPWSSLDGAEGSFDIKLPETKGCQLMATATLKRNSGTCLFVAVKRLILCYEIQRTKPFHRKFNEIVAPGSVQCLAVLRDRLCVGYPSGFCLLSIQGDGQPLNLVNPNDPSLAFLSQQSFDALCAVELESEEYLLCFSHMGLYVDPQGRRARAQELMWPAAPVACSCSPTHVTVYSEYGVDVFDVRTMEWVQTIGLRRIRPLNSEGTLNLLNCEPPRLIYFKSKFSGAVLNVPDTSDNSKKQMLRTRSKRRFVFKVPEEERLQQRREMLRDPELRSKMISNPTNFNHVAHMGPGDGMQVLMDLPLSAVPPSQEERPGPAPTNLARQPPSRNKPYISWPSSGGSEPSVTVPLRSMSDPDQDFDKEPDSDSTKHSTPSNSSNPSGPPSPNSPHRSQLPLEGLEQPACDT

MRCK = system: MRCK; design: method as in earlier work; details: >140 times higher ATP concentration; ref 27 (Amano et al.); cited from earlier work
MRCKα = biological target: T2, MRCKα (Homo sapiens, UniProt Q5VT25); assay: IMAP fluorescence polarization in vitro kinase assay, MRCKα; assay type: biochemical; details: 10 point dose-response, 0.002–40 µM, 0.7 µM ATP
T2 construct: purchased Millipore
T2 sequence (Q5VT25 whole entry): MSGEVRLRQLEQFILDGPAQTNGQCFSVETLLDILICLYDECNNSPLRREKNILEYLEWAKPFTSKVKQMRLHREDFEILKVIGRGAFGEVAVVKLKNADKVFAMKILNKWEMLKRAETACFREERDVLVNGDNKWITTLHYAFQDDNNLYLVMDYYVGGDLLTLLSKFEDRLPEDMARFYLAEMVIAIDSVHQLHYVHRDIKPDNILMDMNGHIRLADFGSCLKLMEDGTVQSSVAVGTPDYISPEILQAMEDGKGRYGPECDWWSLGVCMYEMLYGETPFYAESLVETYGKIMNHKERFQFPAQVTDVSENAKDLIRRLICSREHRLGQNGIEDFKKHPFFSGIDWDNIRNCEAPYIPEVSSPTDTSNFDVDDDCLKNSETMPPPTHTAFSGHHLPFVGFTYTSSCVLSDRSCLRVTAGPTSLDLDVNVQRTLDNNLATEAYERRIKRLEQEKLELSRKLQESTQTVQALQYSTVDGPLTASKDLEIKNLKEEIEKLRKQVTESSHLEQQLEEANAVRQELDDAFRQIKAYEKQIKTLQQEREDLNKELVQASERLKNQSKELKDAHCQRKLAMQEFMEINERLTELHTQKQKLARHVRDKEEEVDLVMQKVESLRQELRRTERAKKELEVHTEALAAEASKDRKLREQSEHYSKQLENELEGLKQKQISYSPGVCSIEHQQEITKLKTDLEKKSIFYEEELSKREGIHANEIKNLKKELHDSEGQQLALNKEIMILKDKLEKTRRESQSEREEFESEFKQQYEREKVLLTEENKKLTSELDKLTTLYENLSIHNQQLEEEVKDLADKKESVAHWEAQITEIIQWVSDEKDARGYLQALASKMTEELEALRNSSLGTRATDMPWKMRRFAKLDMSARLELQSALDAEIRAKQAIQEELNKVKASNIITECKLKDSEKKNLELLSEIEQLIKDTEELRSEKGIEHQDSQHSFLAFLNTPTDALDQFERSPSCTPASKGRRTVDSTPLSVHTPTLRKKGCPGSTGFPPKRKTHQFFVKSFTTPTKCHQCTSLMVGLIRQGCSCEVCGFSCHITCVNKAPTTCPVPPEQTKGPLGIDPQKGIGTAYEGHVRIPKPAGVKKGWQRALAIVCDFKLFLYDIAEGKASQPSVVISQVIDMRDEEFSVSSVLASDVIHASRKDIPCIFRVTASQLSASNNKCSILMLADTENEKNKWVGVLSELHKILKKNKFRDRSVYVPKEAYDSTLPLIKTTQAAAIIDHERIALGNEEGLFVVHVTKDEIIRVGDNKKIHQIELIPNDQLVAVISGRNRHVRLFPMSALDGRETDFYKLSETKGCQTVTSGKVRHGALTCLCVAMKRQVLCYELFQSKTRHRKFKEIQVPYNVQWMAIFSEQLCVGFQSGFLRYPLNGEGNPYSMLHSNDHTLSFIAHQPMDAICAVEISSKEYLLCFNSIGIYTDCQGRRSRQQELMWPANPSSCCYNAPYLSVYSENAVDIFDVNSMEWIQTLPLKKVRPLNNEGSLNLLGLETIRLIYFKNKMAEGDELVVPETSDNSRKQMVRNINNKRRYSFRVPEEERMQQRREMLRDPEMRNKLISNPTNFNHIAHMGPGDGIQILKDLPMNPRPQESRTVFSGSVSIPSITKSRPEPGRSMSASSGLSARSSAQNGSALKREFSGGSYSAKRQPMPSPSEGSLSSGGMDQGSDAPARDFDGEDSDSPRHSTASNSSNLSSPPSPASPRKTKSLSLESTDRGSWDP
Description: Activity assays for MRCKα and β were performed using an IMAP fluorescence polarization assay kit (Molecular Devices Inc.). […] Dose response inhibition analyses were performed over a drug concentration range from 0.002–40 µM, and single point inhibition was assessed at 3 or 30 µM drug.

[1] = system: MDA MB 231 breast cancer cells; assay: 3-dimensional inverse matrigel invasion assay; assay type: cell-based; details: 5 days
Source text: The contribution of MRCK to tumor cell invasion was examined by knocking down both MRCKα and MRCKβ in MB 231 breast cancer cells and determining the effects in a 3-dimensional inverse matrigel invasion assay. The combined MRCKα plus MRCKβ knockdown could be achieved either with two siRNA duplexes targeting each mRNA transcript (MRCKα+β) or with a single siRNA duplex (MRCKα/β) that targets both (Figure 1A). Following plating on the underside of Transwell inserts containing a thick layer of matrigel and allowing 5 days for invasion through the porous filter and into the matrigel, the extent of MDA MB 231 cell invasion was determined by fixing and staining cells with propidium iodide, followed by confocal microscopic optical sectioning at 10 µm intervals (Figure 1B).
Cell invasion assays were as previously described. Complete Matrigel was thawed on ice, diluted 1∶1 with PBS and then 100 µl of diluted matrigel pipetted into Transwell inserts in a 24 well tissue culture plate and left to incubate for 30 minutes at 37°C to set. During this time cell suspensions of 3×10^5 cells per ml from each condition were prepared in their normal growth medium. When the Matrigel had set, the Transwell inserts were inverted and 100 µl of cell suspension pipetted onto the filter. […] ImageJ software was used for quantification. […]

| Compound | Inhibition at 3 µM (%) (MRCKβ) | Inhibition at 30 µM (%) (MRCKβ) | other results |
| --- | --- | --- | --- |
| N#CCCc1ccc2c(c1)-c1[nH]c3ccc([N+](=O)[O-])cc3c1CC(=O)N2 [Alsterpaullone, 2-Cyanoethyl] | 98.4% | 94.8% | – |
| O=C1Cc2c([nH]c3ccc([N+](=O)[O-])cc23)-c2ccccc2N1 [Alsterpaullone] | – | – | inhibition at 3 µM (MRCKβ): 90.7%; inhibition at 30 µM (MRCKβ): 78.4% |
| CN(C)CCCn1cc(C2=C(c3c[nH]c4ccccc34)C(=O)NC2=O)c2ccccc21 [Bisindolylmaleimide I] | 87.9% | – | – |
| CCn1cnc2c(Nc3cccc(Cl)c3)nc(N[C@H]3CCCC[C@H]3N)nc21 [Cdk1 Inhibitor, CGP74514A] | 87.2% | 100% | – |
| O=S(=O)(c1cccc2cnccc12)N1CCCNCC1 [Fasudil] | – | – | Inhibition of MRCK activity (MRCK): did not effectively inhibit MRCK activity |
| COc1ccc2c(c1)c(C1=C(c3c[nH]c4ccccc34)C(=O)NC1=O)cn2CCCN(C)C [Gö 6983] | 88.6% | 65.1% | – |
| O=S(=O)(NCCNC/C=C/c1ccc(Br)cc1)c1cccc2cnccc12 [H-89] | 79.3% | 99.1% | – |
| COC(=O)[C@@]1(O)C[C@H]2O[C@]1(C)n1c3ccccc3c3c4c(c5c6ccccc6n2c5c31)C(=O)NC4 [K-252a, Nocardiopsis sp., K-252a] | 87.3% | 98.4% | – |
| O=C1Nc2ccc3ncsc3c2/C1=C/c1cnc[nH]1 [PKR Inhibitor] | 80.1% | 100.5% | – |
| CN(C)C[C@H]1CCn2c(c(C3=C(c4cn(C)c5ccccc45)C(=O)NC3=O)c3ccccc32)C1 [Ro-32-0432] | 85.2% | 68.2% | – |
| CN[C@@H]1C[C@H]2O[C@@](C)([C@@H]1OC)n1c3ccccc3c3c4c(c5c6ccccc6n2c5c31)C(=O)NC4 [Staurosporine] | – | – | inhibition at 3 µM (MRCKβ): 98.6%; inhibition at 30 µM (MRCKβ): 100% |
| NC(=O)Nc1sc(-c2ccc(F)cc2)cc1C(N)=O [TPCA-1, 2-[(aminocarbonyl)amino]-5-(4-fluorophenyl)-3-thiophenecarboxamide] | – | – | IC50 (MRCKβ): 1690 ± 130 nM; inhibition at 3 µM (MRCKβ): 50.1%; inhibition at 30 µM (MRCKβ): 88.9%; IC50 (MRCKα): 1040 ± 60 nM |
| C[C@@H](N)[C@H]1CC[C@H](C(=O)Nc2ccncc2)CC1 [Y-27632] | 83.5% | 96.6% | IC50 (MRCKβ): 470 ± 30 nM; Invasion 40 µm above the transwell filter surface, combination with MRCKα/β knockdown ([1]; MDA MB 231 cells with MRCKα/β siRNA knockdown plus Y-27632 treatment): significantly more effective than either MRCKα/β knockdown or Y-27632 treatment alone; Invasion 40 µm above the transwell filter surface, normalized to NTC siRNA transfected cells ([1]; NTC siRNA transfected MDA MB 231 cells): significantly reduced invasion |
| Cdk1/2 Inhibitor III | 100% | 100% | – |
